Assay results reported in patent US20250114367A1, “METHOD OF TREATING HAIR LOSS DISORDERS” (Sun Pharmaceutical Industries, Inc., priority 2023, published 2025).
Where “and” joins values, the source holds several entries; their conditions need not be identical. Identical values can stand only once.

How the values were obtained:
[1] = test system: subjects with AA; assay: Open-label extension (OLE) studies: SALT score over time; assay type: in vivo, human; conditions: for percentage of subjects with a SALT score of ≤20: out to Week 52, pooled interim analysis
Method: The SALT score is calculated for a patient/subject by measuring the percentage of hair loss in each of the 4 areas of the scalp and adding the total to achieve a composite score (referred to herein as an absolute SALT score). Hair regrowth is reflected by a decrease in the SALT score. For example, no hair on the scalp would have a SALT score of 100 (i.e., an absolute SALT score) while complete hair regrowth would be a SALT score of 0 (i.e., an absolute SALT score).
Subjects completing 24 weeks of treatment with […] 8 mg twice daily in the Phase III trial were eligible to continue treatment in an open label extension trial. Following 52 additional weeks of treatment with […]™ 8 mg twice daily clinical response rates continued to increase with approximately 74% of the 80 subjects on 8 mg twice daily for 76 weeks achieving SALT ≤20.
The qualifying clinical trials including the following: 1. NCT03137381; 2. NCT03811912; 3. NCT03941548; 4. NCT04784533; 5. NCT04518995; and 6. NCT04797650 (all available a at https://clinicaltrials.gov).
The OLE Efficacy Population is defined as all subjects who received at least one dose of deuruxolitinib and had at least one post-baseline SALT assessment in OLE. The data analyses include subjects' data from the qualifying trial. Missing SALT scores were not imputed. The number of subjects decreases over time due to missing data, patient discontinuations, or subjects not yet at the later timepoints. Any SALT data after a qualifying dose change in the OLE was censored for all figures included here, except those showing the overall treatment sequence. A “qualifying dose change” referred to herein can be placebo in any qualifying trial to any dose of deuruxolitinib in the OLE (includes subjects who switched doses), or any dose of deuruxolitinib in a qualifying trial to any dose of deuruxolitinib in the OLE. Various analyses using SALT scores were conducted to best estimate the overall long-term effect of deuruxolitinib considering the issues with dose changes and decreasing patient numbers over time. “Any Dose” analysis tracks all active subjects over time pooled across the two doses. “As Observed” analysis censors subjects at the time of dose adjustment or study discontinuation. “LOCF” (last observation carried forward) analysis utilizes the last SALT score before dose change and carries it forward for all other timepoints up to 52 weeks.

[2] = test system: plasma protein; assay: Plasma protein binding of CTP-543 at 2 hours post-dose (renal impairment study); assay type: in vitro ADME, human; conditions: moderate renal impairment vs matched controls with normal renal function
Excerpt: All subjects had samples collected for PK.

[3] = test system: subjects with AA; assay: Open-label extension (OLE) studies: safety
Method: Two separate OLE trials were conducted in North America (CP543.5001) and the European Union (CP543.5002). […] Both OLE trials were similarly designed, except: Trial CP543.5001 (North America) participants have the opportunity to continue in the trial for a maximum of 276 weeks; and Trial CP543.5002 (European Union) participants have the opportunity to continue in the trial for a maximum of 108 weeks.
Subjects receiving any active dose of deuruxolitinib in the qualifying trials were initially assigned to receive either 8 mg BID or 12 mg BID in the OLE trial. Subjects receiving placebo in the qualifying trial were assigned to either deuruxolitinib 8 mg BID or 12 mg BID. Subjects were allowed to switch doses during the OLE after initial treatment assignment at the discretion of the Principal Investigator.

[4] = test system: subjects with AA; assay: SALT change at week 8, 8 mg BID versus 16 mg once daily; assay type: in vivo, human
Method: A decrease in SALT score indicates increased hair growth. Decreases in the LS mean SALT scores were initially observed at Week 4. […] At week 8, the LS mean change from baseline SALT score was higher in subjects treated with deuruxolitinib 8 mg BID (8.6%) than in subjects treated with 16 mg once daily (QD) (2.7%).

In the case of `[2H]C1([2H])C([C@@H](CC#N)n2cc(-c3ncnc4[nH]ccc34)cn2)C([2H])([2H])C([2H])([2H])C1([2H])[2H]` [CTP-543, (R)-3-(4-(7H-pyrrolo[2,3-d]pyrimidin-4-yl)-1H-pyrazol-1-yl)-3-(cyclopentyl-2,2,3,3,4,4,5,5-d8) propanenitrile], the “pooled mean SALT score” value ([1]; 8 mg BID in OLE, placebo in the earlier studies) is reported as 30.4, the “OLE responders who maintained treatment response in the OLE” value ([1]; 8 mg BID in the OLE without a qualifying dose change, 282 of 283 responders) is reported as 99.6% and the “pooled mean SALT score” value ([1]; 12 mg BID in OLE, placebo in the earlier studies) is reported as 43.0. The “pooled mean SALT score” value ([1]; 52 weeks, 8 mg BID in OLE, 8 mg of deuruxolitinib in the earlier studies) was 25.6, the “pooled mean SALT score” value ([1]; 52 weeks, 8 mg BID or 12 mg BID in OLE, dosed with deuruxolitinib in the earlier studies) was 31.7 and the “pooled mean SALT score” value ([1]; 52 weeks, 8 mg BID or 12 mg BID in OLE, placebo in the earlier studies) was 43.6. The “pooled mean SALT score” value ([1]; 52 weeks, 12 mg BID in OLE, 12 mg of deuruxolitinib in the earlier studies) was 27.7, the “subjects achieving SALT ≤20” value ([1]; 80 subjects on 8 mg twice daily for 76 weeks (24 weeks Phase III + 52 weeks open label extension)) was “approximately 74%” and the “proportion of participants achieving SALT ≤20” value ([1]; OLE at Week 68, any dose (including switched doses), listed as deuruxolitinib) was 62.6% and 63%. The “proportion of participants achieving SALT ≤20 (FIG. 13A)” value ([1]; Week 68, 8 mg BID) was > 80%, the “patients achieving SALT 10” value ([1]; Week 68, 8 mg BID/8 mg BID group, As observed, 179/256) was 69.9% and the “patients achieving SALT 10” value ([1]; Week 68, 8 mg BID/8 mg BID group, LOCF, 213/521) was 40.9%. For the same molecule, the “proportion of participants achieving SALT ≤20” value ([1]; Week 68, 8 mg BID, As Observed (AO), listed as deuruxolitinib) was 76.6% and 77%, the “proportion of participants achieving SALT ≤20” value ([1]; Week 68, 8 mg BID, LOCF) was 48.8% and the “proportion of participants achieving SALT ≤20” value ([1]; Week 68, 12 mg BID, As Observed (AO), listed as deuruxolitinib) was 66.7% and 67%. For the same molecule, the “proportion of participants achieving SALT ≤20” value ([1]; Week 68, 12 mg BID, LOCF) was 60.9%, the “patients achieving SALT 10” value ([1]; Week 68, placebo/8 mg BID group, As observed, 39/59) was 66.1% and the “patients achieving SALT 10” value ([1]; Week 68, placebo/8 mg BID group, LOCF, 41/122) was 33.6%. The “proportion of participants achieving SALT ≤20” value ([1]; established in the Qualifying Studies, any dose) was 34.9%, the “Mean SALT score” value ([1]; out to 68 weeks, any dose in Qualifying Study and OLE, n=836, baseline 86.8 (n=984)) was 26.8 and the “percentage of subjects with a SALT score of ≤20” value (“percentage of subjects” below) ([1]; 8 mg twice per day in the OLE, listed as deuruxolitinib) was 63.6% and 64%. The “percentage of subjects” value ([1]; 12 mg twice per day in the OLE, listed as deuruxolitinib) was 62.1% and 62%, the “percentage of subjects” value ([1]; any dose in the OLE (including switched doses), listed as deuruxolitinib) was 57.1% and 57% and the “differences in plasma protein binding between cohorts” value [2] was “no meaningful differences”. For the same molecule, the “most common adverse events” value [3] was “COVID-19, acne, nasopharyngitis, headache, asymptomatic COVID-19, creatinine phosphokinase increase, and upper respiratory tract infection”, the “LS mean change from baseline SALT score” value ([4]; 8 mg BID) was 8.6% and the “LS mean change from baseline SALT score” value ([4]; 16 mg once daily (QD)) was 2.7%.
